The source of these data is patent US20130204033A1, “ANTIPROLIFERATIVE COMPOUNDS, CONJUGATES THEREOF, METHODS THEREFOR, AND USES THEREOF” (Medarex, Inc., priority 2009, published 2013).

One may read the pEC50 as −log10 of the EC50, conventionally taken in molar units.

Common to all, as to type: cell-based, human
For one assay, the system named is Hep3B. As to the kind of experiment: 3H thymidine proliferation assay, Hep3B. Conditions: 3H thymidine method, 72 h incubation, read-out: EC50, Hep3B. In outline:
(§1)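 EC50 from ^3H-thymidine uptake: 1.0 μCi/well pulse during final 24 h of a 72 h exposure; scintillation count. 1.0×10^4 cells/well, seeded 3 h before 1:3 serial dilutions of unconjugated compound or conjugate.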

The next assay relates to HCT-15. As to the kind of experiment: 3H thymidine proliferation assay, HCT-15. Conditions: 3H thymidine method, 72 h incubation, read-out: EC50, HCT-15. A digest of the protocol: as §1
The next assay relates to 786-O. Briefly: ATP luminescence proliferation assay, 786-O. To be noted: ATP luminescence, 786-O, 48 h incubation, read-out: EC50 786-O (48 h). A digest of the protocol:
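Cells seeded at 1.0×10^3 cells/well for 3 h, then exposed to 1:3 serial dilutions of free compounds or conjugates for 48, 72 or 96 h, as noted. ATP measured by luminescent cell viability kit; EC50 taken as concentration reducing proliferation by 50%.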

For assay [1], the system named is DMS53. As to the kind of experiment: 3H thymidine proliferation assay, DMS53. Conditions: 3H thymidine method, 72 h incubation, read-out: EC50, DMS53. A digest of the protocol:
as §1

A further assay relates to A2058. As to the kind of experiment: ATP luminescence proliferation assay, A2058. To be noted: ATP luminescence, A2058, 72 h incubation, read-out: EC50 A2058 (72 h). A digest of the protocol:
(§2)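 ATP luminescence read-out after 48, 72 or 96 h exposure to 1:3 serially diluted unconjugated compounds or conjugates; 1.0×10^3 cells/well plated 3 h before dosing. EC50 = 50% reduction of proliferation.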

Another assay relates to BT474. As to the kind of experiment: ATP luminescence proliferation assay, BT474. To be noted: ATP luminescence, BT474, 72 h incubation, read-out: EC50 BT474 (72 h). A digest of the protocol: as §2
The test system of a further assay is RPMI-8226. Briefly: ATP luminescence proliferation assay, RPMI-8226. Conditions: ATP luminescence, RPMI-8226, 72 h incubation, read-out: EC50 RPMI-8226 (72 h). In outline:
as §2

The subject of assay [2] is Nomo-1. Briefly: ATP luminescence proliferation assay, Nomo-1. To be noted: ATP luminescence, Nomo-1, 72 h incubation, read-out: EC50 Nomo-1 (72 h). In outline: as §2
The test system of another assay is CEM-C1. As to the kind of experiment: 3H thymidine proliferation assay, CEM-C1. Conditions: 3H thymidine method, 72 h incubation, read-out: EC50, CEM-C1. A digest of the protocol: as §1
For assay [3], the system named is MDA-MB-231. Briefly: ATP luminescence proliferation assay, MDA-MB-231. Conditions: ATP luminescence, MDA-MB-231, 72 h incubation, read-out: EC50 MDA-MB-231 (72 h). A digest of the protocol: as §2
A further assay deals with H740. Briefly: 3H thymidine proliferation assay, H740. Conditions: 3H thymidine method, 72 h incubation, read-out: EC50, H740. A digest of the protocol: as §1
Assay [4] deals with Nomo-1. Briefly: 3H thymidine proliferation assay, Nomo-1. To be noted: 3H thymidine method, 72 h incubation, read-out: EC50, Nomo-1. In outline: as §1
The next assay has as its system UO-31. Briefly: ATP luminescence proliferation assay, UO-31. Conditions: ATP luminescence, UO-31, 48 h incubation, read-out: EC50 UO-31 (48 h). A digest of the protocol:
as §2

In another assay the test system is HPAC. As to the kind of experiment: 3H thymidine proliferation assay, HPAC. To be noted: 3H thymidine method, 72 h incubation, read-out: EC50, HPAC. In outline:
as §1

In assay [5] the test system is MDA-MB-231. As to the kind of experiment: 3H thymidine proliferation assay, MDA-MB-231. Conditions: 3H thymidine method, 72 h incubation, read-out: EC50, MDA-MB-231. A digest of the protocol:
as §1

The next assay has as its system LNCaP. As to the kind of experiment: 3H thymidine proliferation assay, LNCaP. To be noted: 3H thymidine method, 72 h incubation, read-out: EC50, LNCaP. A digest of the protocol: as §1
The next assay relates to SK-BR3. As to the kind of experiment: ATP luminescence proliferation assay, SK-BR3. Conditions: ATP luminescence, SK-BR3, 72 h incubation, read-out: EC50 SK-BR3 (72 h). A digest of the protocol:
as §2

Assay [6] has as its system DMS53. As to the kind of experiment: ATP luminescence proliferation assay, DMS53. To be noted: ATP luminescence, DMS53, 72 h incubation, read-out: EC50 DMS53 (72 h). In outline: as §2

pEC50: −log10 of the molar value. Where two headings read alike, the source gives them in different places.

As to `COc1cccc2c1C(=O)c1c(O)c3c(c(O)c1C2=O)C[C@@](O)(C(=O)CO)C[C@@H]3O[C@H]1C[C@H](N)[C@H](O)[C@H](C)O1` [Dox, doxorubicin, reference compound], the pEC50 was 7.36 in the assay with Hep3B (Homo sapiens, Hep3B); 6.83 with HCT-15 (Homo sapiens, HCT-15); 6.44 in the assay with 786-O (Homo sapiens, 786-0); 6.01 in the assay on DMS53 [1] (Homo sapiens, DMS-53); 7.00 with A2058 (Homo sapiens); 6.41 with BT474 (Homo sapiens, BT-474). For the same molecule, the pEC50 is 6.46 in the assay with RPMI-8226 (Homo sapiens); 6.47 in the assay with Nomo-1 [2] (Homo sapiens); 6.84 in the assay on CEM-C1 (Homo sapiens, CEM/C1); 6.29 with MDA-MB-231 [3] (Homo sapiens); 6.59 with H740 (Homo sapiens); 6.98 in the assay on Nomo-1 [4] (Homo sapiens, NOMO-1). For the same molecule, the pEC50 with UO-31 (Homo sapiens) is 6.04; in the assay with HPAC (Homo sapiens, HPAC), 6.90; in the assay with MDA-MB-231 [5] (Homo sapiens, MDA-MB-231) it was 6.88; in the assay with LNCaP (Homo sapiens, LNCaP), 6.89; with SK-BR3 (Homo sapiens, SK-BR-3), 6.36; with DMS53 [6] (Homo sapiens, DMS-53), 6.12.
Regarding `CC[C@H](C)[C@H](NC(=O)[C@H]1CCCCN1C)C(=O)N(COC(=O)CC(C)C)[C@H](C[C@@H](OC(C)=O)c1nc(C(=O)N[C@@H](Cc2ccccc2)C[C@H](C)C(=O)O)cs1)C(C)C` [Tub D, tubulysin D, reference compound], the pEC50 with Hep3B was 10.66; with HCT-15 it was 10.21; in the assay with 786-O, 10.66; with DMS53 [1], 9.68; with A2058, 11.19; with BT474 it was 10.68. In addition, the pEC50 was 11.29 in the assay with RPMI-8226; 10.89 with Nomo-1 [2]; 10.74 in the assay on CEM-C1; 10.33 with MDA-MB-231 [3]; 8.66 in the assay with H740; 10.38 with Nomo-1 [4]. Further, the pEC50 in the assay on UO-31 is 10.00; with HPAC, 10.82; with MDA-MB-231 [5], 10.04; in the assay with LNCaP it was 9.44; in the assay on SK-BR3 it was 10.60; in the assay with DMS53 [6] it was 10.16.
